Data from patent US8420614B2, “Compositions and methods for inhibiting or reversing fibrotic disorders” (Albany Medical College, priority 2007, dated 2013).

Experiments:
Type in all cases: cell-based, human
[1] = tested on: NADF; assay: BrdU incorporation, NADF; conditions: 24 h BrdU pulse; TGF-β1 10 ng/ml
Method: HTSF (5×10^3 cells) or NADF (5×10^3 cells) were plated in serum free media (Dulbecco's […] 1:1, Hams F12 1:1, transferrin 5 μg/ml, insulin 5×10^−7M, ascorbate 0.2 mM, glutamine 1:100, penicillin-streptomycin 1:100) for 18 hrs in Labtek™ chambers (Nalge Nunc International, Naperville, Ill.) at 37° C. Cells were washed three times with Dulbecco's phosphate buffered saline (DPBS) (Gibco Invitrogen International, Carlsbad, Calif.) and to each well DMEM containing serum was added, 10 μg/ml of BrdU (Biodesign International, Saco, Me.), with or without the addition of 10 ng/ml of TGFβ1. In some wells anti-TGF-β (20 μg/ml) was also added as indicated. Cells were incubated (24 hrs), washed with DPBS, fixed with 3.7% formaldehyde (Sigma Chemical Co., St. Louis, Mo.) in DPBS (10 min), permeabilized with 0.5% Triton X-100 (5 min) (Sigma Chemical Co., St. Louis, Mo.), blocked (1 hr) with 2% bovine serum albumin (Sigma Chemical Co., St. Louis, Mo.) in PBS then DNAase (Promega, Madison, Wis.) treated for 30 min. […] Coverslips were mounted in Gelmount (Biomedia Corp., Biomedia Corp., Foster City, Calif.) and slides were analyzed on an Olympus BX60 microscope using 10× objective. […] The percent positive BrdU incorporation was determined by dividing the number of nuclei labeled with both BrdU (green) and Hoescht (blue) by the total number of nuclei (blue)×100.

[2] = tested on: supermature focal adhesions in NADF; assay: Focal adhesion measurements, NADF; conditions: TGF-β1 10 ng/ml for 5 days
Method: Cells were stained as previously described (Dabiri et al., 2006), with slight modification. Control or modified cells were cultured at 30% confluency in complete medium for 18 hours, then washed with Dulbecco's phosphate-buffered saline and serum-free medium was added, followed by 10 ng/ml of TGF-β1 or 20 ng/ml of anti-TGF-β1 (R&D Systems, Minneapolis, Minn.) where specified. Cells were allowed to incubate for 5 days. On the fifth day, cells were washed fixed, permeabilized, and blocked for 1 hour. Samples were then incubated sequentially with mAb against vinculin (1:400) (Sigma Chemical Co., St Louis, Mo.), and then with a mixture of goat anti-mouse Alexa Fluor 488 (1:1000) and TRITC-conjugated phalloidin (1:100). […] Images were captured with attached Cooke Sensicam digital camera and deconvolved using Slidebook 3.0.10.3 software (FFTW licensed from Massachusetts Institute of Technology, Cambridge, Mass.).
Focal adhesion measurements were performed as described previously (Dabiri et al., 2006). In brief, cells (n=20) were chosen that were not in contact with any other cell and were well spread. Images were observed using Olympus BX60 microscope equipped with an immersion oil objective (×60/1.25, phase) and captured as described above. Vinculin staining was measured for area (μm^2) of focal adhesion using Image Pro-Plus version 4.5.1.26 (Media Cybermatic, Silver Spring, Md.). […]

[3] = tested on: SMCA in NADF; assay: SMCA expression (western blot, immunostaining), NADF; conditions: TGF-β1 10 ng/ml
Method: (§1) NADF and HTSF lysates were analyzed for protein expression by western blotting with the following primary antibodies at a concentration of 1:1000: cyclin D1, (BD-Biosciences; DCS-6, San Jose, Calif.), cyclin A, (Santa Cruz Biotech.; H 432, Santa Cruz, Calif.), p21^cip1 (BD-Biosciences; sx-118, San Jose, Calif.), p15^ink4b (Cell Signaling, Danvers, Mass.), Hic-5 (BD Transduction, Franklin Lakes, N.J.), RhoGDI (Santa Cruz Biotech, Santa Cruz, Calif.), H2A (Cell Signaling, Danvers, Mass.) and ERK½ (Santa Cruz Biotech, Santa Cruz, Calif.), Vinculin (Sigma Aldrich), SMCA (Sigma Aldrich), FN (Neomarkers), Collagen type I (Sigma Aldrich), Paxillin (Sigma Aldrich). Western blots were developed using SuperSignal chemiluminescent substrate (Pierce, Rockford, Ill.) and quantitated with a Fluor-S MultiImager and Quantity-One software (Bio-Rad, Hercules, Calif.). Membranes were stripped using Restore Stripping (Pierce, Rockford, Ill.) and reprobed (no more than once) with other antibodies.
(§2) Cells were stained as previously described (Dabiri et al., 2006), with slight modification. Control or modified cells were cultured at 30% confluency in complete medium for 18 hours, then washed with Dulbecco's phosphate-buffered saline and serum-free medium was added, followed by 10 ng/ml of TGF-β1 or 20 ng/ml of anti-TGF-β1 (R&D Systems, Minneapolis, Minn.) where specified. […]

[4] = tested on: Hic-5; assay: Western blot of Hic-5 expression, NADF; conditions: TGF-β1 10 ng/ml
Method: as §1
Either NADF (5×10^3 cells) or HTSF (5×10^3 cells) were cultured in DMEM plus serum for 24 hrs with either TGF-β1 (10 ng/ml) or anti-TGF-β1 (20 μg/ml) where indicated. […] Protein expression was analyzed by western blot, as described above. […]

[5] = tested on: HTSF; assay: Floating collagen lattice contraction, HTSF; conditions: TGF-β1 10 ng/ml added to Hic-5 siRNA treated HTSF
Method: (§3) Before preparing the gels, 5 ml of BSA (Sigma) solution (0.1% BSA in PBS, filter sterilized) was pipetted into each well of a six-well plate, incubated at 37° C. for 1 hour. 1.4 ml of bovine dermal collagen Vitrogen (Cohesion, Palo Alto, Calif.) was mixed with 0.4 ml of 5×DMEM in a 15 ml centrifuge tube cooled on ice. The pH was adjusted to a range of 7.2-7.5, using a sterile solution of 1N NaOH. The control and modified cells were trypsinized from a confluent tissue culture plate and 0.2 ml of the cell suspension (containing 5×10^5 cells) was added to the collagen solution, gently mixed and poured into a well of the six-well plate. Collagen lattices were allowed to gel for 60 minutes in a 5% CO2 atmosphere at 37° C. After 60 minutes, the collagen lattices were detached from the surface of the well by rimming the lattice with a sterile spatula and gently swirling the six-well plate. 2 ml of serum-free medium was added to each well. Plates were incubated in a 5% CO2 atmosphere at 37° C. To measure contraction, the tissue culture dishes were periodically placed on top of a transparent metric ruler on an opaque background, and the diameters of the lattices were recorded.

[6] = tested on: NADF; assay: CyQUANT cell growth, NADF; conditions: serum-containing media; anti-TGF-β 20 μg/ml or TGF-β1 10 ng/ml
Method: (§4) All cells used in these studies were cultured (37° C., 5% CO2.) in serum-containing media which consisted of Dulbecco's modification of Eagle's Minimum Essential Medium, 10% fetal bovine serum and 1% penicillin-streptomycin (all of which were obtained from Gibco Invitrogen Corporation, Carlsbad, Calif.). NADF were purchased from Clonetics-Cambrex BioScience (Walkersville, Md.). HTSF were isolated from biopsies taken from hypertrophic scars resected therapeutically from pediatric patients at Shriner's Burn Hospital and Massachusetts General Hospital, (Boston, Mass.). Tissue was processed according to the protocol of Ronnov-Jessen and Peterson (1993) and as described in (Dabiri et al., 2006). All tissues were acquired anonymously under protocols approved by the relevant medical and ethical committees of the Shriner's Burn Center in accordance with the Declaration of Helsinki Principles and patients gave their written, informed consent.
(§5) Cell growth was measured using CyQUANT® Cell Proliferation Assay Kit (C-7026, Invitrogen, Carlsbad, Calif.). […] Plates were read on Spectra Max Gemini-EM (Molecular Devices, Sunnyvale, Calif.) with an excitation and emission spectrum 480 nm and 520 nm, respectively.

[7] = tested on: NADF; assay: Floating collagen lattice contraction, NADF; conditions: TGF-β1 10 ng/ml; floating collagen lattice three days
Method: as §3

[8] = tested on: collagen type I and FN in NADF; assay: Western blot of ECM proteins, NADF; conditions: TGF-β1 10 ng/ml, 5 days
Method: as §1

[9] = tested on: HTSF; assay: CyQUANT cell growth, HTSF; conditions: serum-containing media; anti-TGF-β 20 μg/ml or TGF-β1 10 ng/ml
Method: as §4, §5

[10] = tested on: cyclin A, cyclin D1, p21^cip1, p15^ink4b in NADF; assay: Western blot of cell cycle proteins, NADF
Method: as §1

[11] = tested on: SMCA in HTSF; assay: SMCA expression (western blot, immunostaining), HTSF; conditions: TGF-β1 10 ng/ml, 5 days
Method: as §1, §2

TGF-β1: recombinant, active TGF-β1 added exogenously (R&D Systems)
percent BrdU positive nuclei in NADF [1]: statistically significant decrease in the percent positive nuclei
increase in the percentage of focal adhesions greater than 6 μm^2 in NADF [2]: ~10 fold
increase in percent positive SMCA cells in NADF ([3]; 5 days): 7 fold
expression of SMCA and Hic-5 in NADF ([3]; serum free media five days): both SMCA and Hic-5 were upregulated
expression of Hic-5 in NADF ([4]; 24 h): significantly increased the expression of Hic-5
expression of Hic-5 in the nucleus in NADF ([4]; subcellular fractionation): significantly increased the expression of Hic-5 in the nucleus
ability of Hic-5 knocked-down HTSF to contract collagen [5]: fully rescued the ability of HTSF to contract collagen
NADF proliferation (increase in cell number by day 3) [6]: statistically significant decrease in proliferation
decrease in collagen diameter by NADF [7]: 3 fold
expression of collagen and FN in NADF [8]: significantly increased the expression of these ECM proteins
HTSF proliferation (increase in cell number by day 3) [9]: did not significantly alter the growth
cyclin A and cyclin D1 levels in NADF ([10]; 24 h, TGF-β1 10 ng/ml): decreased cyclin A and cyclin D1 levels
increase in p15^ink4b level in NADF compared to NADF without TGF-β1 ([10]; 24 h, TGF-β1 10 ng/ml): 5.25 fold
increase in p21^cip1 level in NADF compared to NADF without TGF-β1 ([10]; 24 h, TGF-β1 10 ng/ml): 2.5 fold
increase in expression of p15^ink4b in NADF ([10]; siRNA experiment, TGF-β1 10 ng/ml for 24 hrs, unaffected by knockdown of Hic-5): 4 fold
increase in the percentage of positive SMCA cells in HTSF in which Hic-5 was genetically ablated [11]: 5 fold
